Experimental data published in article PMC10166890, “Screening for DAX1/EWS‐FLI1 functional inhibitors identified dihydroorotate dehydrogenase as a therapeutic target for Ewing's sarcoma” (Cancer Medicine, 2023).
pIC50: −log10 of the molar value. “Also recorded” adds a separate entry of the source.

How the values were obtained:
DAX1 = DAX1 reporter assay (KJMGER8/pAGal9p4‐hDAX1 cells, luciferase); type: cell-based, human
Description: pAGal9‐hDAX1 and pAPPRE×10‐Luc + were transfected into KJMGER8 cells by electroporation using a Gene Pulser (Bio‐Rad Laboratories, Hercules, CA, USA), and clones stably expressing the DAX1 and luciferase reporter genes under the control of PPRE were selected. The obtained clone was termed KJMGER8/pAGal9p4‐hDAX1. KJMGER8/pAGal9p4‐hDAX1 cells (1.8 × 10^4 cells/well) were seeded in 384‐well white plates (Greiner Japan, Tokyo, Japan) and cultured in RPMI1640‐IPTSG medium containing 10 nM 17β‐estradiol (E2; Sigma‐Aldrich), dissolved in ethanol, with test compounds at concentration ranges of 0.01 to 10,000 nM or vehicle (dimethyl sulfoxide [DMSO]). The final DMSO concentration was ≤0.3%, and the ethanol concentration was 0.1%. The next day, Blight‐Glo Luciferase Assay Reagent (Promega, Madison, WI, USA) was added to the medium. The luciferase activity was measured using a TopCount NXT system (PerkinElmer, Waltham, MA, USA). IC50 values were calculated using XLfit version 4 (ID Business Solutions, Surrey, UK).
A DAX1 reporter assay system was constructed with the estrogen‐inducible Namalwa cell (KJMGER8 cell) by co‐transfection with pAGal9‐hDAX1 and pAPPRE×10‐Luc+.[18] In the obtained cell line KJMGER8/pAGal9p4‐hDAX1, DAX1 expression is induced by E2 treatment, and the expressed DAX1 increases luciferase expression. Reporter activity was increased by E2 treatment as expected (Figure S2). […] Using this DAX1 reporter assay system, small‐molecule compounds in an in‐house library were screened to obtain DAX1 inhibitors, and K‐234 was identified (Figure 1).
pAGal9-hDAX1 and pAPPRE×10-Luc+ were transfected into KJMGER8 cells by electroporation using a Gene Pulser (Bio-Rad Laboratories, Hercules, CA, USA), and clones stably expressing the DAX1 and luciferase reporter genes under the control of PPRE were selected. The obtained clone was termed KJMGER8/pAGal9p4-hDAX1. KJMGER8/pAGal9p4-hDAX1 cells (1.8×10^4 cells/well) were seeded in 384-well white plates (Greiner Japan, Tokyo, Japan) and cultured in RPMI1640-IPTSG medium containing 10 nM 17β-estradiol (E2; Sigma-Aldrich), dissolved in ethanol, with test compounds at concentration ranges of 0.01 to 10000 nM or vehicle (dimethyl sulfoxide [DMSO]). The final DMSO concentration was ≤0.3%, and the ethanol concentration was 0.1%. The next day, Blight-Glo Luciferase Assay Reagent (Promega, Madison, WI, USA) was added to the medium. The luciferase activity was measured using a TopCount NXT system (PerkinElmer, Waltham, MA, USA). IC50 values were calculated using XLfit version 4 (ID Business Solutions, Surrey, UK)

A‐673 cells = assay: Cell viability assay (XTT), A‐673 cells; type: cell-based, human
Description: AsPC‐1, A‐673, and TC‐71 cells were seeded in 96‐well plates (800 cells/well for AsPC‐1, 2000 cells/well for A‐673, and 400 cells/well for TC‐71) and cultured overnight. Vehicle (DMSO) or a test compound diluted with the medium was then added to the wells (final DMSO concentration was 0.3%), and 72 h later, 2,3‐bis[2‐methoxy‐4‐nitro‐5‐sulfophenynl]‐2H‐tetrazolium‐5‐carboxanilide inner salt (XTT) reagent (Roche Diagnostics, Mannheim, Germany) was added to the medium. After 3‐h incubation at 37°C, the formation of the formazan dye was determined by measuring absorbance at 490 and 650 nm using a SpectraMax 340PC system (Molecular Devices, Sunnyvale, CA, USA).

DHODH [1] = target: T1, DHODH (Homo sapiens, UniProt Q02127); assay: DHODH inhibition assay, A‐673 mitochondria fraction (orotic acid production, LCMSMS); type: biochemical; settings: read-out: IC50 for orotic acid production through DHODH
T1 construct: The mitochondria fraction was isolated from A‐673 cells using Q proteome Mitochondria Isolation kit; endogenous in cells; host or cells: A-673 cells, mitochondria fraction
Description: The mitochondria fraction was isolated from A‐673 cells using Q proteome Mitochondria Isolation kit (QIAGEN, Hilden, Germany). The protein concentration of the fraction was determined using the DC‐protein assay kit (Bio‐Rad Laboratories, Hercules, CA, USA) with bovine serum albumin (Sigma‐Aldrich) as the standard. […] The reaction was quenched by adding 120 μL of 3 μM 5‐fluoroorotic acid acetonitrile solution. These samples were then centrifuged at 5000 g for 5 min to precipitate proteins, and the supernatant was collected. The samples were diluted 10‐fold with 70% acetonitrile‐water and subjected to liquid chromatography with tandem mass spectrometry (LCMSMS). The analyte was then separated on a hydrophilic interaction chromatography column (PC‐HILIC; 5 μm, 4.6 mm I.D. × 50 mm; Osaka Soda, Osaka, Japan). LCMSMS detection was performed by electrospray ionization in negative ion mode.

DHODH [2] = target: T2, DHODH (Mus musculus, UniProt O35435); assay: DHODH inhibition with mouse liver mitochondria; type: biochemical
T2 construct: IC50 value for the mouse liver mitochondrial fraction; from tissue; host or cells: mouse liver mitochondria

[3] = tested on: A‐673 cell‐derived tumors; assay: A‐673 xenograft in SCID mice; type: in vivo, mouse
Description: (§1) All animal studies were performed in accordance with Standards for Proper Conduct sof Animal Experiments at Kyowa Kirin Co., Ltd., under the approval of the company's Institutional Animal Care and Use Committee. Male C.B17/Icr‐scid/scidJcl (SCID) mice (5 weeks old) were purchased from CREA Japan (Tokyo, Japan). K‐733 was suspended in 0.5% (w/v) methylcellulose 400 (MC400; FUJIFILM Wako Pure Chemical) and orally administered to mice once daily. Ewing's cells were suspended in Dulbecco's phosphate‐buffered saline (DPBS; Thermo Fisher Scientific, Waltham, MA, USA) and injected subcutaneously into the ventral side of mice at 5 × 10^6 cells/0.1 mL/mouse for A‐673 and TC‐71 and 1 × 10^7 cells/0.1 mL/mouse for CADO‐ES1 and SK‐ES‐1. In experiments using TC‐71 cells, 0.3 mg of anti‐asialo GM1 antibody (FUJIFILM Wako Pure Chemical) was injected intraperitoneally 1 day before TC‐71 injection. The tumor size and body weight were measured every 3 or 4 days. The tumor volume was calculated using the following equation: Tumor volumemm^3=DL×DS×DS×1/2, where DL and DS represent the long diameter and short diameter, respectively. The pharmacokinetic analysis of K‐733 is described in Materials and Methods S2.

TC‐71‐derived tumors = assay: TC‐71 xenograft in SCID mice; type: in vivo, mouse; settings: 10, 30, or 100 mg/kg orally once daily; less sensitive than others
Description: as §1

SK‐ES‐1 = SK‐ES‐1 xenograft in SCID mice; type: in vivo, mouse; settings: 10, 30, or 100 mg/kg orally once daily
Description: as §1

T2 sequence (O35435 whole entry): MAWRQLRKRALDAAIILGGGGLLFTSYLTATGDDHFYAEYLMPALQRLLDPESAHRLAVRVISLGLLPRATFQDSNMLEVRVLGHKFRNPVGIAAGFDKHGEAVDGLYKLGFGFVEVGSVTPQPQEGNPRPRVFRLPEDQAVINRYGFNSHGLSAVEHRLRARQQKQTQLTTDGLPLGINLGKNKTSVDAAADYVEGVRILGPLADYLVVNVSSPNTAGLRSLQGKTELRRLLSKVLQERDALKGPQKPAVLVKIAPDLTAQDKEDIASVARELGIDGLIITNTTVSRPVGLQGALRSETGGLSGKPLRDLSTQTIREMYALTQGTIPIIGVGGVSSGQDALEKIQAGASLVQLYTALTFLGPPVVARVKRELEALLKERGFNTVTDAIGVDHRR
T1 sequence (Q02127 whole entry): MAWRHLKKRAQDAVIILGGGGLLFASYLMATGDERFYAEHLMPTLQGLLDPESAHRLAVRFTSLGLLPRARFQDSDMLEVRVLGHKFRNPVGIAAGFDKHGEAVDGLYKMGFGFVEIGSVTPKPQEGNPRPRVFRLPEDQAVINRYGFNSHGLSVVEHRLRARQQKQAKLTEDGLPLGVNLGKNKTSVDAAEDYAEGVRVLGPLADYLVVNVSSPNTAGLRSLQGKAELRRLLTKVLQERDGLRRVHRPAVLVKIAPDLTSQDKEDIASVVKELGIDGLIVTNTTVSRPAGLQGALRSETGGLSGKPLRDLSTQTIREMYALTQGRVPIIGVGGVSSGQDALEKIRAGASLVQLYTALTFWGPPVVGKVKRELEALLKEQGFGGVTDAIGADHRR

With Cc1nc(-c2ccc(C3c4[nH]c5ccc(Cl)cc5c4CCN3C(=O)Oc3ccccc3)cc2)no1 (centres unmarked) [K-733, phenyl 6‐chloro‐1‐(4‐(5‐methyl‐1,2,4‐oxadiazol‐3‐yl)phenyl)‐1,3,4,9‐tetrahydro‐2H‐pyrido[3,4‐b]indole‐2‐carboxylate] the pIC50 (DAX1; Homo sapiens, KJMGER8/pAGal9p4‐hDAX1 cells, 10 nM E2, overnight, read-out: IC50 for inhibition of DAX1 reporter activity) was 8.05, the “Effect of uridine addition on inhibition of DAX1 reporter activity” value (DAX1; uridine 100 μM, overnight) was “completely abrogated” and the “Cell viability of A‐673 cells” value (A‐673 cells; 72 h) was “decreased the viability”. For the same compound, the GI50 (A‐673 cells; Homo sapiens, A673, 50% growth inhibition concentration, A‐673 cells) was 6.11 nM, the pIC50 (DHODH [1]) was 9.02 and the pIC50 (DHODH [2]) was 6.92. The “Treatment per control ratio (T/C), greatest change” value ([3]; 100 mg/kg orally once daily, A‐673 tumors) was 0.38, the “Tumor volume, A‐673 xenograft” value ([3]; 10, 30, or 100 mg/kg orally once daily up to 14 days) was “reduced; also recorded: inhibited tumor growth” and the Body weight ([3]; A‐673‐bearing mice, up to 100 mg/kg orally once daily) was “without a body weight loss; also recorded: without affecting body weight gain”. For the same compound, the “Tumor growth, TC‐71 xenograft” value (TC‐71‐derived tumors) was “reduced dose‐dependently” and the “Tumor growth, SK‐ES‐1 xenograft” value (SK‐ES‐1) was “reduced dose‐dependently”.
